# Laboratory results published in paper PMC5365251, “Biophysical assay for tethered signaling reactions reveals tether-controlled activity for the phosphatase SHP-1” (Science Advances, 2017).
# System: phosphorylated ITIM peptide on PEG28
# Test: Calculation of local concentration, dephosphorylation time and rate enhancement from fitted parameters
# Set-up: species or system mouse
# Method: The tethered enzymatic SPR assay also produced an estimate for the reach parameter (L), which was 23 nm. This number corresponds to a phosphorylated substrate experiencing a maximum local SHP-1 concentration of 45 μM when tethered, compared to, for example, a concentration of 1 μM in solution (Fig. 2A) or in the cytoplasm of immune cells (see Discussion).
# Activatory and inhibitory immune receptors are both known to cluster in the plasma membrane ([11]–[15]), but the extent and consequences of clustering remain poorly understood. In the absence of clustering, a phosphorylation site on the cytoplasmic tails of these receptors will experience the low ~1-μM concentration of cytoplasmic SHP-1 [based on 280,000 copies of SHP-1 in cytotoxic T cells ([30]) with a radius of 5 μm]. Tethering of SHP-1 to nonclustered immune receptors at distances >50 nm results in even lower concentrations (for example, 0.04 μM when receptors are 50-nm apart), but when clustered within 5 nm, we can now estimate that this phosphorylated site will experience an SHP-1 concentration of 45 μM (Fig. 8A). […] These concentrations are calculated using the formula for σ with L = 23 nm for r = 5 and 50 nm (see Materials and Methods). We note that this is based on a reach of L = 23 nm, which represents SHP-1 bound to an ITIM on PEG28 dephosphorylating another ITIM on PEG28.
# The combined effects induced by SHP-1 tethering on allosteric activation (20-fold) and local substrate concentration (45-fold) can be summarized by calculating the dephosphorylation rate ([SHP-1] × kcat* ).
# A key component of the models (described below) is the calculation of the local substrate concentration that a tethered enzyme experiences. We assume that the motion of an unbound phosphorylated peptide (state A) and the motion of SHP-1 bound to a phosphorylated peptide (state B) can both be approximated by the worm-like chain model, which is a widely used polymer model. […]
substance,measurement,setting,value
"SHP-1: murine SHP-1 tyrosine phosphatase with an N-terminal 6× His tag, expressed in E. coli",increase in overall dephosphorylation rate when tethered and clustered,"[SHP-1] × kcat*, 45 μM × 0.0118 versus 1 μM × 0.000603 μM^-1 s^-1",900 fold
same,increase in SHP-1 (local substrate) concentration on tethering to clustered receptors,solution 1 μM versus tethered and clustered 45 μM,45 fold
same,reduction of reaction time by tethering,time to 50% dephosphorylation with versus without tethering,125 fold
